ChEMBL document CHEMBL1134260, “Adamantylaminopyrimidines and -pyridines are potent inducers of tumor necrosis factor-alpha” (2001)
Calls of active or inactive are those of the source. No cut-off for these calls is given here.

Legend:
[1] = TNF-alpha stimulatory activity in B78/TNF/9 melanoma cells evaluated by ELISA method; format: functional, Mus musculus; design: concentration or dose not given beside the values
[2] = Tested for the ability to stimulate TNF-alpha production in B78-H1 murine melanoma cells transduced with gene for human TNF-alpha, clone-9 at 10 uM concentration; format: functional, Mus musculus
[3] = species on record: Mus musculus; test: Tested for the ability to stimulate TNF-alpha production in B78-H1 murine melanoma cells transduced with gene for human TNF-alpha, clone-9 at 10 nM concentration; In active; format: functional
[4] = species on record: Mus musculus; test: Tested for the ability to stimulate TNF-alpha production in B78-H1 murine melanoma cells transduced with gene for human TNF-alpha, clone-9 at 10 uM concentration; In active; format: functional

SMILES	TNF-alpha production (% of control) [1] [%]	other results
Brc1ccc(NC23CC4CC(CC(C4)C2)C3)nc1	~140	
Cc1ccc(NC23CC4CC(CC(C4)C2)C3)nc1	~200	
Cc1cccc(NC23CC4CC(CC(C4)C2)C3)n1	~260	Enhancement [2]: 10%
Cc1cc(C)nc(NC23CC4CC(CC(C4)C2)C3)n1	~240	Enhancement [3]: inactive
c1ccc(NC23CC4CC(CC(C4)C2)C3)nc1	~170	Enhancement [4]: inactive
NC12CC3CC(CC(C3)C1)C2		Enhancement [4]: inactive
c1cnc(NC23CC4CC(CC(C4)C2)C3)nc1	~200	
Cc1cc(Cl)nc(NC23CC4CC(CC(C4)C2)C3)n1	~220	
c1cncc(NC23CC4CC(CC(C4)C2)C3)c1	~190	
Cc1ccnc(NC23CC4CC(CC(C4)C2)C3)c1	~200	
c1cc(NC23CC4CC(CC(C4)C2)C3)ccn1	~130	
Brc1cnc(NC23CC4CC(CC(C4)C2)C3)nc1	~150	
Clc1ccc(NC23CC4CC(CC(C4)C2)C3)cn1	~100	
Cc1cc(N)nc(NC23CC4CC(CC(C4)C2)C3)n1	~180	
Cc1cc(C)nc(NC23CC4CC(CC(C4)C2)C3)c1	~250	Enhancement [4]: inactive
